# Measurements from patent US20260324639A1, “MICROBIOCIDAL PYRAZOLE DERIVATIVES” (SYNGENTA CROP PROTECTION AG, priority 2022, published 2026).
# What was measured:
# Fusarium culmorum = experiment: microbe, parasite or virus in culture; assay type: cell-based; conditions: read-out: control of Fusarium culmorum compared to untreated control
# Method: (§1) Conidia of the fungus from cryogenic storage are directly mixed into nutrient broth (PDB potato dextrose broth). After placing a (DMSO) solution of test compound into a microtiter plate (96-well format), the nutrient broth containing the fungal spores is added. The test plates are incubated at 24° C. and the inhibition of growth is determined photometrically 3-4 days after application.
# [1] = tested on: Mycosphaerella graminicola; experiment: Mycosphaerella graminicola (Septoria tritici)/liquid culture (Septoria blotch); assay type: cell-based; conditions: Zymoseptoria tritici, liquid culture, PDB, 24° C., growth inhibition photometric 4-5 days after application, read-out: control of Mycosphaerella graminicola compared to untreated control
# Method: as §1, with “4-5” for “3-4”
# Monographella nivalis = Monographella nivalis (Microdochium nivale)/liquid culture (foot rot cereals); assay type: cell-based; conditions: liquid culture, PDB, 24° C., growth inhibition photometric 4-5 days after application, read-out: control of Monographella nivalis compared to untreated control
# Method: as §1, with “4-5” for “3-4”
# Alternaria solani = experiment: Alternaria solani/tomato/leaf disc (early blight); assay type: in vivo; conditions: 200 ppm; tomato leaf disks cv. Baby; inoculated 2 days after application; assessed 5-7 days after application
# Method: Tomato leaf disks cv. Baby are placed on agar in multiwell plates (24-well format) and sprayed with the formulated test compound diluted in water. The leaf disks are inoculated with a spore suspension of the fungus 2 days after application. The inoculated leaf disks are incubated at 23° C./21° C. (day/night) and 80% rh under a light regime of 12/12 h (light/dark) in a climate cabinet and the activity of a compound is assessed as percent disease control compared to untreated when an appropriate level of disease damage appears on untreated check disk leaf disks (5-7 days after application).
# Botryotinia fuckeliana = Botryotinia fuckeliana (Botrytis cinerea)/liquid culture (gray mould); assay type: cell-based; conditions: liquid culture, Vogels broth, 24° C., growth inhibition photometric 3-4 days after application, read-out: control of Botryotinia fuckeliana compared to untreated control
# Method: as §1, with “(Vogels” for “(PDB potato dextrose”
# Glomerella lagenarium = Glomerella lagenarium (Colletotrichum lagenarium)/liquid culture (anthracnose); assay type: cell-based; conditions: Colletotrichum orbiculare, liquid culture, PDB, 24° C., growth inhibition photometric 3-4 days after application, read-out: control of Glomerella lagenarium compared to untreated control
# Method: as §1, with “measured” for “determined”
# Pyrenophora teres = experiment: Pyrenophora teres/barley/leaf disc preventative (net blotch); assay type: in vivo; conditions: 200 ppm, barley leaf segments cv. Hasso, inoculated 2 days after application, assessed 5-7 days after application
# Method: Barley leaf segments cv. Hasso are placed on agar in a multiwell plate (24-well format) and sprayed with the formulated test compound diluted in water. The leaf segments are inoculated with a spore suspension of the fungus 2 days after application. The inoculated leaf segments are incubated at 20° C. and 65% rh under a light regime of 12 h light/12 h darkness in a climate cabinet and the activity of a compound is assessed as disease control compared to untreated when an appropriate level of disease damage appears in untreated check leaf segments (5-7 days after application).
# Mycosphaerella arachidis = Mycosphaerella arachidis (Cercospora arachidicola)/liquid culture (early leaf spot); assay type: cell-based; conditions: liquid culture, PDB, 24° C., growth inhibition photometric 4-5 days after application, read-out: control of Mycosphaerella arachidis compared to untreated control
# Method: as §1, with “4-5” for “3-4”
# Phaeosphaeria nodorum = Phaeosphaeria nodorum (Septoria nodorum)/wheat/leaf disc preventative (glume blotch); assay type: in vivo; conditions: 200 ppm, wheat leaf segments cv. Kanzler, inoculated 2 days after application, assessed 5-7 days after application
# Method: Wheat leaf segments cv. Kanzler are placed on agar in a multiwell plate (24-well format) and sprayed with the formulated test compound diluted in water. The leaf disks are inoculated with a spore suspension of the fungus 2 days after application. The inoculated test leaf disks are incubated at 20° C. and 75% rh under a light regime of 12 h light/12 h darkness in a climate cabinet and the activity of a compound is assessed as percent disease control compared to untreated when an appropriate level of disease damage appears in untreated check leaf disks (5-7 days after application).
# [2] = tested on: Blumeria graminis f. sp. tritici; experiment: Blumeria graminis f. sp. tritici/wheat/leaf disc preventative (powdery mildew on wheat); assay type: in vivo; conditions: 200 ppm, wheat leaf segments cv. Kanzler, inoculated 1 day after application, assessed 6-8 days after application
# Method: Wheat leaf segments cv. Kanzler are placed on agar in a multiwell plate (24-well format) and sprayed with the formulated test compound diluted in water. The leaf disks are inoculated by shaking powdery mildew infected plants above the test plates 1 day after application. The inoculated leaf disks are incubated at 20° C. and 60% rh under a light regime of 24 h darkness followed by 12 h light/12 h darkness in a climate chamber and the activity of a compound is assessed as percent disease control compared to untreated when an appropriate level of disease damage appears on untreated check leaf segments (6-8 days after application).
# [3] = tested on: Puccinia recondita f. sp. tritici; experiment: Puccinia recondita f. sp. tritici/wheat/leaf disc preventative (brown rust); assay type: in vivo; conditions: 200 ppm, inoculated 1 day after application, wheat leaf segments cv. Kanzler, assessed 7-9 days after application
# Method: Wheat leaf segments cv. Kanzler are placed on agar in multiwell plates (24-well format) and sprayed with the formulated test compound diluted in water. The leaf disks are inoculated with a spore suspension of the fungus 1 day after application. The inoculated leaf segments are incubated at 19° C. and 75% rh under a light regime of 12 h light/12 h darkness in a climate cabinet and the activity of a compound is assessed as percent disease control compared to untreated when an appropriate level of disease damage appears in untreated check leaf segments (7-9 days after application).
# Sclerotinia sclerotiorum = experiment: Sclerotinia sclerotiorum/liquid culture (cottony rot); assay type: cell-based; conditions: liquid culture (mycelia fragments), PDB, 24° C., growth inhibition photometric 3-4 days after application, read-out: control of Sclerotinia sclerotiorum compared to untreated control
# Method: as §1, with “Mycelia fragments of a newly grown liquid culture” for “Conidia”, “fungus” for “fungus from cryogenic storage”, “format)” for “format),”, “material” for “spores”
structure (smiles),measurement,setting,value
"C[C@H]1c2ccccc2[C@@H](c2cnn(C)c2Cl)CN1C(=O)c1cn(-c2ncc(F)cc2F)nn1 (racemic) [Compound P-53, [1-(3,5-difluoro-2-pyridyl)triazol-4-yl]-[rac-(1S,4S)-4-(5-chloro-1-methyl-pyrazol-4-yl)-1-methyl-3,4-dihydro-1H-isoquinolin-2-yl]methanone]",inhibition of growth at 20 ppm,Fusarium culmorum,≥ 80%
same,inhibition of growth at 20 ppm,[1],≥ 80%
same,inhibition of growth at 20 ppm,Monographella nivalis,≥ 80%
same,control of Alternaria solani compared to untreated control,Alternaria solani,at least 80%
same,inhibition of growth at 20 ppm,Botryotinia fuckeliana,≥ 80%
same,inhibition of growth at 20 ppm,Glomerella lagenarium,≥ 80%
same,control of Pyrenophora teres compared to untreated control,Pyrenophora teres,at least 80%
same,inhibition of growth at 20 ppm,Mycosphaerella arachidis,≥ 80%
same,control of Phaeosphaeria nodorum compared to untreated control,Phaeosphaeria nodorum,at least 80%
same,control of Blumeria graminis f. sp. tritici compared to untreated control,[2],at least 80%
"COc1ccc2c(c1)[C@@H](c1cnn(C)c1)CN(C(=O)c1nnn(-c3ccccc3)n1)[C@H]2C (single isomer, unassigned) [Compound P-37]",inhibition of growth at 20 ppm,[1],≥ 80%
same,inhibition of growth at 20 ppm,Monographella nivalis,≥ 80%
same,control of Puccinia recondita f. sp. tritici compared to untreated control,[3],at least 80%
same,inhibition of growth at 20 ppm,Botryotinia fuckeliana,≥ 80%
same,control of Pyrenophora teres compared to untreated control,Pyrenophora teres,at least 80%
same,inhibition of growth at 20 ppm,Mycosphaerella arachidis,≥ 80%
same,control of Phaeosphaeria nodorum compared to untreated control,Phaeosphaeria nodorum,at least 80%
same,control of Blumeria graminis f. sp. tritici compared to untreated control,[2],at least 80%
"Cc1c([C@H]2CN(C(=O)c3cn(-c4ncc(F)cc4F)nn3)[C@@H](C)c3ccccc32)cnn1C [Compound P-43, [1-(3,5-difluoro-2-pyridyl)triazol-4-yl]-[(1S,4S)-4-(1,5-dimethylpyrazol-4-yl)-1-methyl-3,4-dihydro-1H-isoquinolin-2-yl]methanone]",inhibition of growth at 20 ppm,Fusarium culmorum,≥ 80%
same,inhibition of growth at 20 ppm,[1],≥ 80%
same,inhibition of growth at 20 ppm,Monographella nivalis,≥ 80%
same,control of Alternaria solani compared to untreated control,Alternaria solani,at least 80%
same,inhibition of growth at 20 ppm,Botryotinia fuckeliana,≥ 80%
same,inhibition of growth at 20 ppm,Glomerella lagenarium,≥ 80%
same,control of Pyrenophora teres compared to untreated control,Pyrenophora teres,at least 80%
same,inhibition of growth at 20 ppm,Mycosphaerella arachidis,≥ 80%
same,control of Phaeosphaeria nodorum compared to untreated control,Phaeosphaeria nodorum,at least 80%
same,control of Blumeria graminis f. sp. tritici compared to untreated control,[2],at least 80%
"C[C@H]1c2ccccc2[C@@H](c2cnn(C)c2Cl)CN1C(=O)c1cn(-c2ccc(F)cc2F)nn1 [Compound P-48, [(1S,4S)-4-(5-chloro-1-methyl-pyrazol-4-yl)-1-methyl-3,4-dihydro-1H-isoquinolin-2-yl]-[1-(2,4-difluorophenyl)triazol-4-yl]methanone]",inhibition of growth at 20 ppm,Fusarium culmorum,≥ 80%
same,inhibition of growth at 20 ppm,[1],≥ 80%
same,inhibition of growth at 20 ppm,Sclerotinia sclerotiorum,≥ 80%
same,inhibition of growth at 20 ppm,Monographella nivalis,≥ 80%
same,control of Alternaria solani compared to untreated control,Alternaria solani,at least 80%
same,inhibition of growth at 20 ppm,Botryotinia fuckeliana,≥ 80%
same,inhibition of growth at 20 ppm,Glomerella lagenarium,≥ 80%
same,control of Pyrenophora teres compared to untreated control,Pyrenophora teres,at least 80%
same,inhibition of growth at 20 ppm,Mycosphaerella arachidis,≥ 80%
same,control of Phaeosphaeria nodorum compared to untreated control,Phaeosphaeria nodorum,at least 80%
same,control of Blumeria graminis f. sp. tritici compared to untreated control,[2],at least 80%
"C[C@H]1c2ccccc2[C@@H](c2cnn(C)c2Cl)CN1C(=O)c1nnn(-c2ccc(F)cc2F)n1 [Compound P-49, [(1S,4S)-4-(5-chloro-1-methyl-pyrazol-4-yl)-1-methyl-3,4-dihydro-1H-isoquinolin-2-yl]-[2-(2,4-difluorophenyl)tetrazol-5-yl]methanone]",inhibition of growth at 20 ppm,[1],≥ 80%
same,inhibition of growth at 20 ppm,Monographella nivalis,≥ 80%
same,control of Puccinia recondita f. sp. tritici compared to untreated control,[3],at least 80%
same,control of Alternaria solani compared to untreated control,Alternaria solani,at least 80%
same,inhibition of growth at 20 ppm,Botryotinia fuckeliana,≥ 80%
same,inhibition of growth at 20 ppm,Glomerella lagenarium,≥ 80%
same,control of Pyrenophora teres compared to untreated control,Pyrenophora teres,at least 80%
same,inhibition of growth at 20 ppm,Mycosphaerella arachidis,≥ 80%
same,control of Phaeosphaeria nodorum compared to untreated control,Phaeosphaeria nodorum,at least 80%
same,control of Blumeria graminis f. sp. tritici compared to untreated control,[2],at least 80%
"C[C@H]1c2ccccc2[C@@H](c2cnn(C)c2)CN1C(=O)c1cn(-c2ncc(F)cc2F)nn1 [Compound P-51, [1-(3,5-difluoro-2-pyridyl)triazol-4-yl]-[(1S,4S)-1-methyl-4-(1-methylpyrazol-4-yl)-3,4-dihydro-1H-isoquinolin-2-yl]methanone]",inhibition of growth at 20 ppm,[1],≥ 80%
same,inhibition of growth at 20 ppm,Monographella nivalis,≥ 80%
same,control of Alternaria solani compared to untreated control,Alternaria solani,at least 80%
same,inhibition of growth at 20 ppm,Botryotinia fuckeliana,≥ 80%
same,inhibition of growth at 20 ppm,Glomerella lagenarium,≥ 80%
same,control of Pyrenophora teres compared to untreated control,Pyrenophora teres,at least 80%
same,inhibition of growth at 20 ppm,Mycosphaerella arachidis,≥ 80%
same,control of Phaeosphaeria nodorum compared to untreated control,Phaeosphaeria nodorum,at least 80%
same,control of Blumeria graminis f. sp. tritici compared to untreated control,[2],at least 80%
"Cc1c(C2CN(C(=O)c3cn(-c4ccc(F)cc4F)nn3)Cc3ccccc32)cnn1C (stereo not shown) [Compound P-56, [1-(2,4-difluorophenyl)triazol-4-yl]-[4-(1,5-dimethylpyrazol-4-yl)-3,4-dihydro-1H-isoquinolin-2-yl]methanone]",inhibition of growth at 20 ppm,[1],≥ 80%
same,inhibition of growth at 20 ppm,Monographella nivalis,≥ 80%
same,control of Alternaria solani compared to untreated control,Alternaria solani,at least 80%
same,inhibition of growth at 20 ppm,Botryotinia fuckeliana,≥ 80%
same,inhibition of growth at 20 ppm,Glomerella lagenarium,≥ 80%
same,control of Pyrenophora teres compared to untreated control,Pyrenophora teres,at least 80%
same,inhibition of growth at 20 ppm,Mycosphaerella arachidis,≥ 80%
same,control of Phaeosphaeria nodorum compared to untreated control,Phaeosphaeria nodorum,at least 80%
same,control of Blumeria graminis f. sp. tritici compared to untreated control,[2],at least 80%
